# Source: US20050170359A1, “Treatment of vascular dysfunction and alzheimer's disease” (priority 2002, published 2005)
# Entries after “also recorded” stand apart in the source; their conditions may differ. Peptide text beside a SMILES is read from it. * marks the point of attachment. Cbz = O=C(OCc1ccccc1)*; CH2F = FC*
# What was measured:
# [1] = system: SIPS BEC; experiment: Capillary morphogenesis in 3-D collagen gels by H2O2 stress-induced premature senescence (SIPS) BEC; type: cell-based, human
# Experimental: The 3-D system has been described in detail by Davis et al. (J. Cell Sci. 114:917-930, 2001). Here, the system was used to assay the responsiveness of AD BEC and SIPS BEC to angiogenic stimulation. Briefly, 10^6 MBEC/ml were suspended within 3-D collagen matrices at 25 μl per well in the serum-free culture medium 199 containing VEGF (40 ng/ml) and bFGF (40 ng/ml) in 5% CO2 at 37° C. The cells were fixed with 3% glutaraldehyde in phosphate buffered saline. The sections were stained with hematoxylin/eosin and Hoechst 33342. The formation of intracellular vacuoles (stage I), tubules (stage II), and multicellular tubes and networks (stage III) were determined at 4 hr to 16 hr and 24 hr, respectively. The number of apoptotic cells were determined between 4 hr and 24 hr using double TUNEL/Hoechst staining. At least 200 cells were evaluated from an individual well. […] was quantified at 200 X magnification by counting four fields derived from triplicate wells. Subconfluent BEC cultures (34 days after subculture) were treated with H2O2 by adding it to the culture medium for 2 hr. To induce senescence, sublethal doses of H2O2 were determined and selected. […] H2O2-treated cells were subcultured and analyzed after 1, 2, 3, 4, 5, 6, 24, 48, 72, 96 and 120 hr for expression of different proteins involved in the cell cycle regulation and apoptosis. […]
# [2] = system: BEC; experiment: H2O2 model of stress-induced premature senescence in young human BEC; type: cell-based
# Experimental: Subconfluent BEC cultures (34 days after subculture) were treated with H2O2 by adding it to the culture medium for 2 hr. To induce senescence, sublethal doses of H2O2 were determined and selected. After treatment, cells were washed with PBS (37° C.) before harvesting, subculturing or incubating with a fresh medium or 3-D collagen gels. H2O2-treated cells were subcultured and analyzed after 1, 2, 3, 4, 5, 6, 24, 48, 72, 96 and 120 hr for expression of different proteins involved in the cell cycle regulation and apoptosis. Cells in 60 mm dishes were lysed in SDS sample buffer directly. For Western blot analysis, proteins were separated by SDS-PAGE and transferred to PVDF membrane followed by incubation with different primary antibodies (see antibodies for.Western blot analysis). SIPS BEC were also prepared for microarray analysis on U95A chips as described above.
# [3] = system: AD BEC; experiment: Tube formation in 2-D collagen matrigels, AD BEC; type: cell-based, human; settings: 10 μM
# Experimental: AD or age-matched control (AMC) BEC (2×10^4 cells/well) were plated in 2-D collagen matrigels (growth factors per BD Biosciences, Bedford, Mass.) and treated with 100 nM APC or vehicle (−APC). Total tube length was determined at 24 hr (FIG. 6A). Mean±s.e., n=30 to 40 assays per group from four AD and three AMC cases. AD or AMC BEC were treated with 100 nM APC, 100 nM boiled (B) APC, 100 nM serine mutant (M) APC, or vehicle (−APC) for 24 hr. Total tube length was determined at 24 hr (FIG. 6B). Mean±s.e., n=10 assays per group from one AD and one AMC case. % TUNEL-positive BEC at 4 hr during AD-mediated or AMC-mediated capillary morphogenesis in the presence of 100 nM APC or vehicle (−APC) was calculated (FIG. 6C). Mean±s.e., n=20 assays per group from two AD and two AMC cases. % Caspase-3-positive BEC at 4 hr of brain capillary morphogenesis in AD or AMC treated with 100 nM APC or vehicle (−APC) was calculated (FIG. 6D). Mean±s.e., n=20 assays per group from two AD and two AMC cases. AD BEC (3×10^4) cells were assayed for migration in a modified Boyden chamber in the presence of vehicle (−APC), 100 nM APC, anti-APC C3 monoclonal antibody (200 μg/ml), or anti-APC+APC after 6 hr of incubation (FIG. 6E). Mean±s.e., n=6 assays per group from two AD cases. […]
# [4] = system: AMC BEC; experiment: Tube formation in 2-D collagen matrigels, age-matched control BEC; type: cell-based, human; settings: 10 μM
# Experimental: In 3D collagen gels (as described in FIG. 1), BEC that reached greater than 90% replicative senescence (RS) or were exposed to H2O2 (SIPS) formed an insignificant number of tubes (FIGS. 11A-11B, bar=50 μm). Total tube length—control BEC (arbitrarily taken as 100%) were compared to RS and SIPS BEC (FIG. 11C). The effect of SB202190 (SB, 10 μM for 1 hr) on SIPS-induced aberrant angiogenesis. Mean±s.e., n=9 assays per group from three different cases/group. In 2D collagen matrigels (growth factors per BD Biosciences, Bedford, Mass.), SB202190 (SB, 10 μM) increased the number of tubes in early passage AD BEC (FIGS. 11D-11E, bar=50 μm). SB202190 (SB, 10 μM) increases total tube length in both AMC and AD BEC (FIG. 11F). Mean±s.e., n=6-9 assays per group from two AMC and three AD cases.
# In the 2-D system, collagen matrigels of matrix composition containing a supplement of growth factors were used according to manufacturer's instructions (BD Biosciences, Bedford, Mass.). In the 2-D matrix system, 2×10^4 cells/well were plated.
# (§1) ZVAD-fmk (50 μM, Sigma), p38 MAPK antagonists including SB SB202190 (SB, 10 μM), and plasma-derived activated protein C (APC, prepared by Dr. J. H. Griffin's laboratory, 5-100 nM) were used.
# [5] = system: AD BEC; experiment: Brain capillary morphogenesis in 3-D collagen matrices (VEGF/bFGF) mediated by AD BEC; type: cell-based, human; settings: zVAD-fmk 50 μM, 24 hr, VEGF and bFGF 40 ng/ml
# Experimental: (§2) The 3-D system has been described in detail by Davis et al. (J. Cell Sci. 114:917-930, 2001). Here, the system was used to assay the responsiveness of AD BEC and SIPS BEC to angiogenic stimulation. Briefly, 10^6 MBEC/ml were suspended within 3-D collagen matrices at 25 μl per well in the serum-free culture medium 199 containing VEGF (40 ng/ml) and bFGF (40 ng/ml) in 5% CO2 at 37° C. The cells were fixed with 3% glutaraldehyde in phosphate buffered saline. The sections were stained with hematoxylin/eosin and Hoechst 33342. The formation of intracellular vacuoles (stage I), tubules (stage II), and multicellular tubes and networks (stage III) were determined at 4 hr to 16 hr and 24 hr, respectively. The number of apoptotic cells were determined between 4 hr and 24 hr using double TUNEL/Hoechst staining. At least 200 cells were evaluated from an individual well. […] was quantified at 200 X magnification by counting four fields derived from triplicate wells.
# as §1
# [6] = system: caspase 3; experiment: Western blot of activated caspase-3 in AD BEC lysates during capillary morphogenesis; type: cell-based, human; settings: zVAD-fmk 50 μM, 24 hr
# Experimental: Cell lysates were prepared from subconfluent BEC cultures, BEC at different stages of capillary morphogenesis or BEC exposed to SIPS (see below H2O2 model of SIPS). Antibodies for Western blot analysis included caspase 3, rabbit anti-human polyclonal, 1:100 (0.5 mg/ml, BD PharMingen); p53, mouse anti-human monoclonal, 1:200 (0.1 mg/ml, Oncogene); p16, mouse anti-human monoclonal, 1:250 (0.5 mg/ml, BD ParMingen); p21, mouse anti-human, 1:200 (0.4 mg/ml, Oncogene); Rb (Santa Cruz), p27 (Santa Cruz), fibronectin (Santa Cruz), PAI-1 (Santa Cruz) or phosphorylated p38 MAPK; gax, rabbit polyclonal against C-terminal region of the rat gax protein (amino acids SDHSSEHAHL), 1:500 (7 mg/ml, provided by Dr Kenneth Walsh); and β-actin, goat anti-human polyclonal, 1:2,500 (0.2 mg/ml, Santa Cruz Biotechnology). The secondary antibody was HRP-conjugated and peroxidase activity was detected with enhanced chemiluminescence detection kit (ECL, Pierce). The relative abundance of the primary antigen was determined by scanning densitometry using β-actin as an internal control.
# [7] = system: AD BEC; experiment: Apoptosis (TUNEL, caspase-3 positive cells) during AD BEC-mediated capillary morphogenesis; type: cell-based, human
# Experimental: as §2
# Staining with APO-BRDU kit was performed according to manufacturer's instructions (Phoenix Flow Systems).
compound,measurement,setting,value
OO [H2O2],number of tubes formed by H2O2-treated (SIPS) BEC,[1]; compared to untreated normal control cells,form an insignificant number of tubes
same,"senescent phenotype (G1 arrest, flattened morphology, SA-β-gal)","[2]; 300 μM for 2 hr, within 48 hr",developed a senescent phenotype
same,BEC apoptosis,"[2]; concentrations higher than 300 μM, not shown",resulted in BEC apoptosis
Oc1ccc(-c2nc(-c3ccncc3)c(-c3ccc(F)cc3)[nH]2)cc1 [SB202190],number of tubes in early passage AD BEC,[3],completely restored; also recorded: increased
same,"total tube length, AD BEC",[3],increases
same,"total tube length, AMC BEC",[4],increases
same,augmentation of total tube length in the SIPS model,"[1]; preincubation 10 μM for 1 hr, 3D collagen gels",~5 fold
COC(=O)C[C@H](NC(=O)[C@H](C)NC(=O)[C@@H](NC(=O)OCc1ccccc1)C(C)C)C(=O)CF [zVAD-fmk] (Cbz-Val-Ala-Asp(OMe)-CH2F),number of tubes,[5],restored
same,total tube length,[5],restored
same,number of tubes,[5]; listed as zVAD,restoration
same,total tube length,[5]; listed as zVAD,restoration
same,levels of activated form of caspase-3,[6],preventing the formation of the active form of caspase 3; also recorded: reduced
same,apoptosis in AD BEC,[7]; during AD BEC-mediated capillary morphogenesis,prevents apoptosis
same,number of apoptotic AD BEC by TUNEL staining,"[7]; zVAD, data not shown",decreased
